The record followed here is paper PMC7335187, “Super-assembly of ER-phagy receptor Atg40 induces local ER remodeling at contacts with forming autophagosomal membranes” (Nature Communications, 2020).

Where two headings read alike, the source gives them in different places. Where a SMILES comes first, the peptide text is derived from it.

What all share (format): binding
One experiment deals with GABARAP WT (Homo sapiens, UniProt O95166). As to the kind of experiment: ITC of ER-phagy receptor peptides with GABARAP. To be noted: 25 °C, 0.5 mM peptide in syringe, ± fitting error; for N (site), stoichiometry of binding: GABARAP WT in cell. The source says:
(§1) All plasmids for expression of recombinant proteins and peptides in bacteria were based on a pGEX6P-1 vector (GE Healthcare). Construction of pGEX6P-ScAtg8 (1-116) K26P and pGEX6P-rat LC3B (1-120) was previously described[35],[47]. All mutations were generated by PCR-based mutagenesis. The genes were amplified by PCR and inserted downstream of the HRV 3C protease recognition site by NEBuilder HiFi DNA Assembly Master Mix (New England Biolabs) except for that encoding human GABARAP (1-116), which was inserted using restriction enzymes for the NdeI and BamHI sites. Plasmids for expression of fusion proteins for crystallization were constructed by inserting the genes encoding Atg40^237–252, human FAM134B^450–468, human SEC62^361–376 with the T367D mutation, and human RTN3^245–264 isoform e into upstream of the sequence encoding Atg8 K26P of pGEX6P-Atg8 (the K26P mutation was introduced for stabilizing Atg8) or upstream of the sequence encoding GABARAP of pGEX6P-GABARAP (with the F3S V4T mutations for enhancing crystallization). For phase-separation experiments, the mCherry and BNDL1[25],[26] sequences were inserted into upstream and downstream of the ATG8 gene in pGEX6P-Atg8 K26P, respectively. pGEX-SNAP-40C was constructed by the removal of the HRV 3C protease recognition site and the insertion of the SNAP sequence from pSNAP-tag(T7) vector (New England Biolabs) with a linker (Gly–Gly–Gly–Ser–Gly–Gly–Gly) and Atg40^194–256 following a linker (Ser–Ala–Ser–Ser) to upstream and downstream of GST in pGEX6P-1 vector, respectively. In the construction of plasmids for peptide production, a Tyr residue was attached to their C termini for enabling the quantification by absorbance at 280 nm (Supplementary Table 4).
(§2) Some of peptides (Supplementary Table 4) and all proteins except Atg40-6His were expressed in E. coli BL21 (DE3). Bacteria were cultured at 37 °C until OD600 became 0.8–1.0 and further cultured at 16 °C with 100 μM IPTG overnight. After centrifugation, the pellets were resuspended with 20 ml PBS with 0.5 mM EDTA and lysed by sonication for 10 min. […]

The target in a further experiment is LC3B WT (Rattus norvegicus, UniProt Q62625). As to the kind of experiment: ITC of peptides with LC3B. The note with it: 25 °C, 0.5 mM peptide in syringe, LC3B WT in cell 10 times lower, single-site model, ± fitting error.
Excerpt: as §1, §2

A further experiment addresses LC3A WT (Homo sapiens, UniProt Q9H492). Kind of experiment: ITC of peptides with LC3A. To be noted: 25 °C, 0.5 mM peptide in syringe, LC3A WT in cell 10 times lower, single-site model, ± fitting error. On the procedure: (§3) Some of peptides (Supplementary Table 4) and all proteins except Atg40-6His were expressed in E. coli BL21 (DE3). Bacteria were cultured at 37 °C until OD600 became 0.8–1.0 and further cultured at 16 °C with 100 μM IPTG overnight. After centrifugation, the pellets were resuspended with 20 ml PBS with 0.5 mM EDTA and lysed by sonication for 10 min. After centrifugation, the supernatants were incubated with GST-accept resin (Nacalai tesque). After three times wash by PBS, the proteins were eluted with glutathione buffer (10 mM glutathione and 50 mM Tris pH 8.0). The buffer of the eluates was exchanged with PBS by a Bio-Scale Mini BioGel P-6 desalting column (Bio-Rad). After incubation with GST-fused HRV 3 C protease at 4 °C overnight, the samples were subjected to a GST-accept resin column to remove excised GST and the protease. RTN3^245–264-GABARAP was purified by cation-exchange chromatography using CM Sepharose FF column (GE Healthcare) with 500 mM MES pH 6.0 as buffer B and 50 mM MES pH 6.0 and 1 M NaCl as buffer C. The samples were further subjected to size-exclusion chromatography with 20 mM HEPES pH 6.8, 150 mM sodium chloride except for mCherry-Atg8-CC^tetramer (20 mM HEPES pH 6.8, 500 mM sodium chloride) using a Superdex 75 10/300 or Superdex 200 26/60 column. As described in Supplementary Table 4, the Atg40^237–252 M245A and Atg40^237–252 D243A D247A peptides were synthesized by Cosmo Bio, and the FAM134B^453–460 and SEC62^361–368 peptides were synthesized by BEX Co., Ltd. The Atg40^234–252 peptide and its variants were prepared using Liberty Blue peptide synthesizer (CEM Corporation). After dissolving these synthesized peptides in 300 μl water with ~10 μl ammonium hydroxide, they were subjected to size-exclusion chromatography with 20 mM HEPES pH 6.8 containing 150 mM sodium chloride using a Superdex 75 10/300 column.
Peptides used in ITC are listed in Supplementary Table 4. ITC experiments were performed using Microcal iTC200 calorimeter (Malvern Panalytical), with stirring at 1000 rpm at 25 °C. […]

The target in another experiment is LC3C WT (Homo sapiens, UniProt Q9BXW4). As to the kind of experiment: ITC of peptides with LC3C. To be noted: 25 °C, 0.5 mM peptide in syringe, LC3C WT in cell 10 times lower, single-site model, ± fitting error. On the procedure:
as §3
Peptides used in ITC are listed in Supplementary Table 4. ITC experiments were performed using Microcal iTC200 calorimeter (Malvern Panalytical), with stirring at 1000 rpm at 25 °C. Atg40, FAM134B, SEC62, and RTN3 peptides were prepared as injection samples from the syringe. Concentrations of FAM134B, SEC62, and RTN3 peptides were 0.5 mM, whereas those of Atg40^234–252 and Atg40^237–252 peptides were 2.0 and 1.8 mM, respectively. In total, 200 μl Atg8, LC3A, LC3B, LC3C, GABARAP, GABARAPL1, and GABARAPL2 with 10 times lower concentration than the syringe samples were filled in the cell. As an exception, 1.8 mM Atg8 was filled in the cell when 1.8 mM Atg40^237–252 D243A D247A was in a syringe. The titration involved 18 injections of 2 μl of the syringe sample at intervals of 120 s into a cell after one injection of 0.4 μl of syringe sample. […]

GABARAP WT, sequence (O95166 1-116): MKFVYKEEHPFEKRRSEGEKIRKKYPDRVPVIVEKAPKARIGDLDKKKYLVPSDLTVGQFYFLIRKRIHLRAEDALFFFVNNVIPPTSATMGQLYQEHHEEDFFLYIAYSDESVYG
LC3C WT, sequence (Q9BXW4 whole entry): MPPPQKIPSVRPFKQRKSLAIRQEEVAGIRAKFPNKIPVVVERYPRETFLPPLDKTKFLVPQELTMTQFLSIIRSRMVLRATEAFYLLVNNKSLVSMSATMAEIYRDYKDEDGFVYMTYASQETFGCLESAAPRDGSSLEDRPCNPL

Usually Kd stands for a measure of binding affinity in units of concentration. Regarding `CC[C@H](C)[C@H](NC(=O)[C@H](CCC(N)=O)NC(=O)[C@H](CC(=O)O)NC(=O)[C@H](CC(C)C)NC(=O)[C@H](CCC(=O)O)NC(=O)[C@H](CO)NC(=O)[C@H](CCC(N)=O)NC(=O)[C@H](CC(=O)O)NC(=O)[C@H](C)NC(=O)[C@H](CC(C)C)NC(=O)[C@H](CCC(=O)O)NC(=O)[C@H](Cc1ccccc1)NC(=O)[C@H](CC(=O)O)NC(=O)[C@H](CC(=O)O)NC(=O)CNC(=O)[C@H](CCC(=O)O)NC(=O)[C@H](CCC(=O)O)NC(=O)[C@@H](NC(=O)[C@H](CC(=O)O)NC(=O)[C@@H](NC(=O)[C@H](CC(=O)O)NC(=O)[C@H](CCC(=O)O)NC(=O)[C@H](CCC(=O)O)NC(=O)[C@@H]1CCCN1C(=O)CN)[C@@H](C)O)[C@@H](C)O)C(=O)N[C@@H](CCC(=O)O)C(=O)N[C@@H](CO)C(=O)N[C@@H](CCC(=O)O)C(=O)N[C@@H](CC(C)C)C(=O)N[C@@H](Cc1ccc(O)cc1)C(=O)O` [FAM134B444-470 L458A] (H-GPEEDTDTEEGDDFELADQSELDQIESELY-OH), the “N (site), stoichiometry of binding” value at GABARAP WT was 0.99 ± 0.03. At GABARAP WT (20 mM HEPES pH 6.8, 150 mM NaCl, GABARAP WT in cell 10 times lower, single-site model), this compound displayed a Kd of 2.06 ± 0.61 µM.
As to `CC[C@H](C)[C@H](NC(=O)[C@H](CCC(N)=O)NC(=O)[C@H](CC(=O)O)NC(=O)[C@H](CC(C)C)NC(=O)[C@H](C)NC(=O)[C@H](CO)NC(=O)[C@H](CCC(N)=O)NC(=O)[C@H](CC(=O)O)NC(=O)[C@H](CC(C)C)NC(=O)[C@H](CC(C)C)NC(=O)[C@H](C)NC(=O)[C@H](Cc1ccccc1)NC(=O)[C@H](CC(=O)O)NC(=O)[C@H](CC(=O)O)NC(=O)CNC(=O)[C@H](CCC(=O)O)NC(=O)[C@H](CCC(=O)O)NC(=O)[C@@H](NC(=O)[C@H](CC(=O)O)NC(=O)[C@@H](NC(=O)[C@H](CC(=O)O)NC(=O)[C@H](CCC(=O)O)NC(=O)[C@H](CCC(=O)O)NC(=O)[C@@H]1CCCN1C(=O)CN)[C@@H](C)O)[C@@H](C)O)C(=O)N[C@@H](CCC(=O)O)C(=O)N[C@@H](CO)C(=O)N[C@@H](CCC(=O)O)C(=O)N[C@@H](CC(C)C)C(=O)N[C@@H](Cc1ccc(O)cc1)C(=O)O` [FAM134B^444-470 E456A E462A] (H-GPEEDTDTEEGDDFALLDQSALDQIESELY-OH), on LC3B WT, the Kd was 8.2 ± 2.46 µM.
Regarding `CC[C@H](C)[C@H](NC(=O)[C@@H](NC(=O)[C@H](CCC(=O)O)NC(=O)[C@H](Cc1ccccc1)NC(=O)[C@@H]1CCCN1C(=O)[C@H](CO)NC(=O)[C@H](CCC(=O)O)NC(=O)[C@@H](N)Cc1ccc(O)cc1)C(C)C)C(=O)N[C@H](C(=O)N[C@@H](CC(=O)O)C(=O)O)[C@@H](C)CC` [RTN3245-253 WT (∆helix)] (H-YESPFEVIID-OH), on LC3A WT, the Kd was 21.7 ± 3.62 µM.
Regarding `CC[C@H](C)[C@H](NC(=O)[C@@H](NC(=O)[C@H](CCC(=O)O)NC(=O)[C@H](Cc1ccccc1)NC(=O)[C@@H]1CCCN1C(=O)[C@H](CO)NC(=O)[C@@H](N)CCC(=O)O)C(C)C)C(=O)N[C@H](C(=O)N[C@@H](CC(=O)O)C(=O)N[C@@H](CCCCN)C(=O)N[C@@H](C)C(=O)N[C@@H](C)C(=O)N[C@@H](Cc1ccccc1)C(=O)N[C@@H](CC(=O)O)C(=O)N[C@@H](CCCCN)C(=O)N[C@@H](CCC(=O)O)C(=O)N[C@@H](Cc1ccccc1)C(=O)N[C@@H](CCCCN)C(=O)N[C@@H](CC(=O)O)C(=O)N[C@@H](CO)C(=O)N[C@@H](Cc1ccc(O)cc1)C(=O)O)[C@@H](C)CC` [RTN3245-264 WT] (H-ESPFEVIIDKAAFDKEFKDSY-OH), on LC3C WT, the Kd entry is reported as “not detected”.
Consider `CC[C@H](C)[C@H](NC(=O)[C@H](CCSC)NC(=O)[C@H](CCC(=O)O)NC(=O)[C@H](Cc1ccccc1)NC(=O)[C@H](CC(=O)O)NC(=O)[C@@H](N)CC(N)=O)C(=O)N[C@H](C(=O)N[C@@H](CCCCN)C(=O)N[C@@H](Cc1ccc(O)cc1)C(=O)O)[C@@H](C)O` [SEC62^361-368 (Δhelix)] (H-NDFEMITKY-OH), for which the equilibrium dissociation constant (Kd) at LC3C WT (read-out: Kd) was determined as 31.9 ± 13.2 µM.
Consider `CSCC[C@H](NC(=O)[C@H](CCC(=O)O)NC(=O)[C@H](Cc1ccccc1)NC(=O)[C@H](CC(=O)O)NC(=O)[C@H](CC(N)=O)NC(=O)CNC(=O)[C@H](CC(N)=O)NC(=O)CNC(=O)[C@H](CO)NC(=O)[C@H](CO)NC(=O)[C@H](Cc1c[nH]cn1)NC(=O)[C@@H]1CCCN1C(=O)CN)C(=O)N[C@@H](C)C(=O)N[C@H](C(=O)N[C@@H](CCCCN)C(=O)N[C@@H](CCC(=O)O)C(=O)N[C@@H](CCC(=O)O)C(=O)N[C@@H](CC(C)C)C(=O)N[C@@H](CCC(=O)O)C(=O)N[C@@H](CCC(N)=O)C(=O)N[C@@H](CCC(N)=O)C(=O)N[C@H](C(=O)N[C@@H](CC(=O)O)C(=O)N[C@@H](Cc1ccc(O)cc1)C(=O)O)[C@@H](C)O)[C@@H](C)O` [SEC62355-376 I366A] (H-GPHSSGNGNDFEMATKEELEQQTDY-OH), for which the “N (site), stoichiometry of binding” value at GABARAP WT is on record as 0.87 ± 0.10.
